In assay [1] the target is T1, mTORC1 (Homo sapiens, UniProt P42345).
T1 construct: mTORC1 was isolated by co-immunoprecipitation using Flag antibody; made in house; host or cells: HEK 293T transfected with Flag-Raptor
Nature of the assay: In vitro mTORC1 kinase assay (GST-S6K Thr389 phosphorylation, immunoblot). The class given is biochemical. The method, then: In order to investigate the effect on mTORC1 activity of norathyriol, in vitro mTORC1 kinase assay was performed. After introducing Flag-Raptor into a human cell line 293T, mTORC1 was isolated by co-immunoprecipitation using Flag antibody. In addition, the activity of the isolated mTORC1 complex was evaluated by measuring phosphorylation of GST-S6K Thr389, which is a selective substrate of mTORC1, by immunoblot analysis. In the control group in which Flag-Raptor was not introduced, GST-S6K Thr389 phosphorylation was almost not measured. […] Therefore, it was judged that GST-S6K Thr389 phosphorylation measured in the in vitro mTORC1 kinase assay was generated by mTORC1. In order to evaluate the inhibitory effect of norathyriol on mTORC1 activity, norathyriol was pretreated for 15 minutes, and then in vitro mTORC1 kinase assay was carried out.
More specifically, the HEK 293T cells were cultured in a DMEM culture medium in which 10% heat inactivated FBS+1× Glutamax was added. 8×10^5 HEK 293T cells were seeded in a 100 mm culture dish, and then they were cultured for 1 day. After mixing 42 μl Lipofectamine, 21 μl plus reagent, and 21 μg Flag-Raptor plasmid DNA to 1 ml OPTI-MEM, it was shaken at a room temperature for 25 minutes to prepare a transfection DNA mixture. The transfection DNA mixture was slowly treated on the cells drop by drop, and after culturing for 5 hours, the culture medium was replaced with a new culture medium. […] The protein concentration of the cell lysate was determined with BCA protein assay kit (Thermo Fisher Scientific). […] Thr389 phosphorylation of GST-S6K1, which is a substrate of mTORC1, was measured by performing immunoblot analysis using phospho Thr389 p70 S6 kinase antibody (#9205S, Cell Signaling) and GST antibody (#A190-122A, Bethyl Laboratories). […]

The test system of assay [2] is CYFIP1-overexpressing hippocampal neurons. Nature of the assay: Excessive dendritic arborization in CYFIP1-overexpressing primary hippocampal neurons. The class given is cell-based, rat. From the text: Neural stem cells were primarily cultured from the hippocampal vestigial region of white mouse E16 embryos, and CYFIP1, which was found as a gene causing autism spectrum disorder, was introduced by transfection and overexpressed. When the neural stem cells in which CYFIP1 was overexpressed were differentiated, the neurite length and branch number increased compared to the normal cell, the number of dendritic spine increased, and morphological changes such as an increase in rod-shaped dendritic spines with a size of 0.6 μm or more, which are larger than the normal size, were accompanied. Therefore, CYFIP1 overexpression was used as a culture cell model of autism.
By treating norathyriol to the differentiating neural stem cells exogenously overexpressing CYFIP1, the effect of norathyriol on excessive dendritic arborization generated by CYFIP1 overexpression was investigated. By immunofluorescent staining method using an antibody against pan-neurofilament and an antibody against PSD (post-synaptic density)-95, which was expressed in the post-synaptic dendrite of synapses, the neurite length and dendritic spine number were measured and quantified. In addition, by DAPI staining, the nuclei of the neural cells were visualized.
Hippocampus-derived neural progenitor cells were isolated from the forebrain of E16 mouse embryos. SD-rat gestational age 16-day mice (Orient Bio) were purchased and the mice were anesthetized with CO2 deeply, and then the embryos were taken out. The embryos were immersed in Ca^2+/Mg^2+-free HBSS (Invitrogen) and the forebrain was isolated using a sterile injection needle under a dissecting microscope. While changing HBSS, the forebrain was separated into the left and right hemispheres using a forcep, and meninges were peeled off, and then the hippocampal eminence was separated. After washing the separated and collected tissue with cold N2 culture medium twice, 37° C. N2 culture medium was added and cells were slowly and mechanically isolated using a pipette. As the pipette, a Pasteur pipette coated with 1% BSA was used after making the pipette narrow and soft in diameter by firing the tip. After waiting for 3 minutes to allow undissolved tissue or vascular cells to settle, the supernatant was carefully taken as dissolved cells. These tissues were collected and mechanically isolated with the pipette in Ca^2+/Mg^2+-free HBSS (Invitrogen) buffer. The cells were seeded at 19,000 cells/cm^2 in a 35 mm culture dish coated with 15 μg/ml poly-L-ornithine and 1 μg/ml fibronectin (Sigma), and cultured using a serum-free N2 medium (medium for proliferation) in which 10 ng/mL bFGF (Invitrogen) was added under a condition of 5% CO2. […]

A value given as a limit tells only on which side of the number the result lay.

The values that follow come from US20240366555A1, “SELECTIVE MTORC2 INHIBITOR AND USES THEREOF” (ALIAD BIOPHARMA, priority 2021, published 2024).

On to `O=c1c2cc(O)c(O)cc2oc2cc(O)cc(O)c12` [norathyriol, 1,3,6,7-tetrahydroxy-9H-xanthen-9-one], for which the “GST-S6K Thr389 phosphorylation” value in assay [1] (20 μM, 40 μM and 80 μM, FIG. 6c) was “not reduced at a significant level”. Moreover, in assay [1] (in vitro mTORC1 kinase assay), the IC50 is > 80 µM. In addition, in assay [2] (50 nM and 100 nM, on average, FIG. 10b), the “reduction of number of dendritic spines per unit neurite length” value is reported as ≤ 50%. In assay [2] (FIG. 10b), the “number of dendritic spines in primary branching neurites” value is “reduced by norathyriol in a similar tendency” and the “number of dendritic spines per cell” value is recorded as “reduced by norathyriol in a similar tendency”. The “number of dendritic spines per unit neurite length” value in assay [2] (from 10 nM, FIG. 10) is listed as “decrease in the number of dendritic spines was observed”.

Usually IC50 stands for the concentration at which inhibition is half-maximal. Higher therefore signals lower potency.
